{"source": "paper PMC12746157", "about": "“Light-Regulated Agonists Spatiotemporally Activating the Vitamin D Receptor Mitigate Psoriasis-like Inflammation in Mice without Inducing Hypercalcemia” (ACS Central Science, 2025)", "key": {"[1]": {"test": "Photoisomerization quantum yield (MATLAB regression)", "assay_type": "physicochemical", "description": "The UV–vis absorbance spectra of all molecules were measured in the dark and after the application of light of different wavelengths ranging from 365 to 770 nm (Figure A and Figures S1–S3). […] Consequently, violet/UV light below 405 nm efficiently promoted photoisomerization, which produced a dramatic decrease in the π-π* band and a significant increase in the n-π* band at around 445 nm (Table ). […] The proportion of molecules at the PSS in trans isomer upon constant illumination with light at 525 nm and cis at 365 nm was in general above 50%, reaching a remarkable >99% for compound 11d (Table and Figures S4 and S5). […] The greater stability of the trans isomer was consistent with previous quantum mechanical and molecular mechanics predictions. Measuring the photoisomerization properties of compound PhotoVDRM allowed us to determine the photoisomerization quantum yields of the compound by solving a differential equation for photoisomerization. We used MATLAB to perform regression and arrive at the following photoisomerization quantum yields: ϕ365 nm (trans) = 0.0427, ϕ365 nm (cis) = 0.0501, ϕ470 nm (trans) = 0.1857, and ϕ470 nm (cis) = 0.2281 (Figure S9). Compound PhotoVDRM was also evaluated in aqueous buffer used for pharmacological experiments (0.5% DMSO) showing a thermal relaxation of 3 h, almost 7 times faster than in pure DMSO (Figure B). […] A deeper photocharacterization of PhotoVDRM allowed us to measure the kinetics of photoconversion upon constant illumination with two wavelengths and three light intensities (Figure D and Figure S10). […] Indeed, with LED devices producing light at intensities as low as 0.05 mW/mm^2 we were able to transform trans to cis in around 15.5 s. This time was reduced to 6 and 2 s when the light intensity was increased to 0.15 and 0.75 mW/mm^2. […] Therefore, we proceeded to test the ability of the chemical library to activate the VDR under different light conditions."}, "VDR-LBD": {"molecular_target": "T1, VDR-LBD (Homo sapiens, UniProt P11473)", "T1 construct": "VDR-LBD protein stock solution was prepared in 20 mM HEPES buffer", "T1 sequence (P11473 127-423 limits assumed)": "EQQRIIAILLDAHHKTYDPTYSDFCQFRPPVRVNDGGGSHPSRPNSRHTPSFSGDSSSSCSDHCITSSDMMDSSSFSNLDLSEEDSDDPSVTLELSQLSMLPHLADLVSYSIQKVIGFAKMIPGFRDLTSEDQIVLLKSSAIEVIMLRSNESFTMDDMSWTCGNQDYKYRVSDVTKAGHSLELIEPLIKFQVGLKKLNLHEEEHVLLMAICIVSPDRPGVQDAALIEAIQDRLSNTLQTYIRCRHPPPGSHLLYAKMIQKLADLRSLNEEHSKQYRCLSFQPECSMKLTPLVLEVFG", "test": "HDX-MS of VDR-LBD with ligand in the dark and under 365 nm light", "assay_type": "binding", "description": "Although previously used to study the effect of a cyclic azopeptide in its activated cis state, here we studied the target dynamics upon direct application of the light to the sample. To this aim, HDX-MS was applied for the characterization of the binding mode and modulation of receptor dynamics of the racemic compound PhotoVDRM. VDR-LBD was incubated alone (to provide an apo control for each experiment) or with an excess of compound PhotoVDRM and exposed to deuterium labeling for various periods of time, from 10 s to 2 h, in the dark and illuminated with light at 365 nm. […] As an additional control experiment, we also evaluated the HDX-MS of VDR-LBD in the presence and absence of a standard agonist, compound LSN2148936, in the dark and under illumination conditions. […] In order to permit direct comparison, including mathematical manipulation of the data in all these experiments, the observed deuterium incorporation percentages were converted to rate constants (expressed as −log10(k)) using our previously published Bayesian approach.\n(Perkin Elmer, now Revvity, Cat.No. 6006290) in duplicate. Immediately, 54 µL of the protein solution were added and the plate was covered and incubated for 30 min at room temperature in the dark. Meanwhile, the plate with the 10X dilutions was illuminated at 365 nm for 3 min in a 96-well DED array plate (LEDA Teleopto), to allow the photoconversion of the molecules to their cis configuration. The illuminated compounds were mixed with the protein solution and incubated as described above for the plate in the dark. After the incubation time, the counts of both, the dark and illuminated plates, were measured in a Tecan Spark 20M Multimode plate reader with defined settings (excitation: 680 nm, emission: 520-620 nm, excitation time: 100ms, integration time: 300 ms). Biotinylated-His6 peptide (PerkinElmer) was used as a quality control reagent for AlphaScreen® assays and to evaluate compound interaction with the method. […] Dose-response curves and EC50 values were calculated with Graphpad software. […]"}, "[2]": {"test": "Serum total calcium measurement in mice (Arsenazo III)", "assay_type": "in vivo", "settings": "after treatment i.p. days 2-4 (LSN2148936 0.005 mg/kg, PhotoVDRM 0.5 mg/kg), 420 or 520 nm"}, "VDR": {"molecular_target": "VDR (Homo sapiens, UniProt P11473)", "sequence (P11473 whole entry, the tested form may be a part)": "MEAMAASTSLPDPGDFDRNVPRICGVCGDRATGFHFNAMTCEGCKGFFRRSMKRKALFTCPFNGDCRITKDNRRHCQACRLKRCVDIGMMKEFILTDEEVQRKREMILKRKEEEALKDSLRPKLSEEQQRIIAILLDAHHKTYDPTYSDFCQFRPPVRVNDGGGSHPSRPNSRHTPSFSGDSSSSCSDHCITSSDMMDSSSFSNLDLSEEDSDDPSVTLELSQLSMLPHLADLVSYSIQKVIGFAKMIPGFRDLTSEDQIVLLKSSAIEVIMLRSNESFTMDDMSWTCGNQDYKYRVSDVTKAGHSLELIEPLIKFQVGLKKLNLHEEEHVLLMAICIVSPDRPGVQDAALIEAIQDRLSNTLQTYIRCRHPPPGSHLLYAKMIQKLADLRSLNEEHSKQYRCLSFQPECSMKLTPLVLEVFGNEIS", "sequence (P19793 whole entry partner, the tested form may be a part)": "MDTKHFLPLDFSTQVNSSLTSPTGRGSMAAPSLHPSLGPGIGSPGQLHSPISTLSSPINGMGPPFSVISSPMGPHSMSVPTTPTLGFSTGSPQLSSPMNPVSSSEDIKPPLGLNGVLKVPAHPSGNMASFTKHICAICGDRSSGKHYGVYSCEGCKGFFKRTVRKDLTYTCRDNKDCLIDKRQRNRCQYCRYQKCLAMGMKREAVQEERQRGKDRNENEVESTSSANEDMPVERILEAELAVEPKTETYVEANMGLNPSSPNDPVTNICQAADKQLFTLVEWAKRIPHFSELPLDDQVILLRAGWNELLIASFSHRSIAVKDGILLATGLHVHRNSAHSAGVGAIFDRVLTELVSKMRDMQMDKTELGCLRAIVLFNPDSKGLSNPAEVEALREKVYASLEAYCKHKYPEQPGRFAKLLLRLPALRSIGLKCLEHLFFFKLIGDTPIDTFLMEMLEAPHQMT", "sequence (Q15648 whole entry partner, the tested form may be a part)": "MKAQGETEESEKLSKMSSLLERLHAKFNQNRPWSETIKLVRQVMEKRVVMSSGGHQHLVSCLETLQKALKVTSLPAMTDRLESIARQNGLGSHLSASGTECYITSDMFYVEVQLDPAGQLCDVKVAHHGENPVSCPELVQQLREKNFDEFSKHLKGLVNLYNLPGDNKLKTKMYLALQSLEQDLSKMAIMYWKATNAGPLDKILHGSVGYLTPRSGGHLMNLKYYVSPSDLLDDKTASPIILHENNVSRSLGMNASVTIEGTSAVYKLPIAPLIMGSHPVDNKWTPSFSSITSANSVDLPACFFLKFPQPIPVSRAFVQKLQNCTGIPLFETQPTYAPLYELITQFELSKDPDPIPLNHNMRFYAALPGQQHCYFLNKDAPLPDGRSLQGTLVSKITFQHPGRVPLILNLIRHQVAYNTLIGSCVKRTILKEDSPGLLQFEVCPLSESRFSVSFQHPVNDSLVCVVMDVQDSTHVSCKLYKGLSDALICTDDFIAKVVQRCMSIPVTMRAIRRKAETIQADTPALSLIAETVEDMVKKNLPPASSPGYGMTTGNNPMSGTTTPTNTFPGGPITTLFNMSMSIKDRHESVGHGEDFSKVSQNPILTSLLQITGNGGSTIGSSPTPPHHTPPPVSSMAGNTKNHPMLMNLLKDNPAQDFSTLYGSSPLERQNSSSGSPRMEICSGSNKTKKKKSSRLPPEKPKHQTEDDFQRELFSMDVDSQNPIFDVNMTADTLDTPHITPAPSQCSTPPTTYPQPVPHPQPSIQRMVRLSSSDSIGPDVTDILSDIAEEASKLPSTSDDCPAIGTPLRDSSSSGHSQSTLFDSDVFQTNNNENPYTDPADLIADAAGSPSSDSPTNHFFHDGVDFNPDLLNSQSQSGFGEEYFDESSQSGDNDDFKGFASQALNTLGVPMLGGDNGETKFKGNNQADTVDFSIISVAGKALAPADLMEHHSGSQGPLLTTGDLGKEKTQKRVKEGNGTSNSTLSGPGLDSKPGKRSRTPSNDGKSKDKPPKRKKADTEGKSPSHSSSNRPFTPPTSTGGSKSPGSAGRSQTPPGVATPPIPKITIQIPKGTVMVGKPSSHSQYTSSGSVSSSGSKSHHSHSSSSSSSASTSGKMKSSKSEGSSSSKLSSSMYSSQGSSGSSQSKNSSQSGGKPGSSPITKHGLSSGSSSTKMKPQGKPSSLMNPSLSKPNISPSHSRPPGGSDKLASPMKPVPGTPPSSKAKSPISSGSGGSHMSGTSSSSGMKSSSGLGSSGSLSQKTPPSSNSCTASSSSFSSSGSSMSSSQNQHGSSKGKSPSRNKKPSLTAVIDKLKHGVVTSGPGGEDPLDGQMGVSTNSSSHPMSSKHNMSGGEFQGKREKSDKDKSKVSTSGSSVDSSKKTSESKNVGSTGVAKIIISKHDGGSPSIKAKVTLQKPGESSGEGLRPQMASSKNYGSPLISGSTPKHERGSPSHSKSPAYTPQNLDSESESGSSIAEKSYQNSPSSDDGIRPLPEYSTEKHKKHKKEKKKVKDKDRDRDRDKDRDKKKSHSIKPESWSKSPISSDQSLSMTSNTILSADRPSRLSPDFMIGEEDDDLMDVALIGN", "test": "Luminescent proximity homogeneous assay (AlphaScreen): interaction of purified VDR, RxR and TRAP220 coactivator fragment", "assay_type": "biochemical", "settings": "UVB narrowband light (315 nm) and visible illumination at 420 nm"}}, "note": "Entries after “also recorded” stand apart in the source; their conditions may differ.", "data": [{"smiles": "Cc1cc(OCC(O)C(C)(C)C)ccc1N=Nc1cccc(-c2ccc(C(=O)O)cc2)c1", "note": "(centres unmarked) [Compound 11b]", "values": [{"measurement": "photoisomerization quantum yield ϕ365 nm (cis)", "setting": "[1]; 365 nm, cis", "value": 0.0501}, {"measurement": "photoisomerization quantum yield ϕ365 nm (trans)", "setting": "[1]; 365 nm, trans", "value": 0.0427}, {"measurement": "photoisomerization quantum yield ϕ470 nm (cis)", "setting": "[1]; 470 nm, cis", "value": 0.2281}, {"measurement": "photoisomerization quantum yield ϕ470 nm (trans)", "setting": "[1]; 470 nm, trans", "value": 0.1857}, {"measurement": "protection to H/D exchange", "setting": "VDR-LBD; in the dark, vs under light", "value": "much lower"}, {"measurement": "protection to H/D exchange", "setting": "VDR-LBD; under 365 nm light, vs reference agonist LSN2148936", "value": "comparable"}, {"measurement": "effect on calcium homeostasis (serum total calcium)", "setting": "[2]", "value": "null impact; also recorded: without concomitant hypercalcemia"}, {"measurement": "modulation of activity by light", "setting": "VDR", "value": "modulated the activity"}]}]}
